The results in this text go back to ChEMBL document CHEMBL1201862, “PubChem BioAssay data set” (2004).

Assay in all cases: NCI anticancer screen, dose series, 48 h
For assay [1], the system named is A498.
The test system of assay [2] is CAKI-1.
The test system of assay [3] is CCRF-CEM.
For assay [4], the system named is DU-145.
The subject of assay [5] is HCT-15.
The test system of assay [6] is HT-29.
The subject of assay [7] is IGROV-1.
Assay [8] deals with MDA-MB-435.
Assay [9] has as its system NCI-H23.
The test system of assay [10] is NCI-H460.
The subject of assay [11] is OVCAR-3.
Assay [12] deals with OVCAR-4.
The test system of assay [13] is PC-3.
Assay [14] has as its system SK-MEL-28.
The test system of assay [15] is SK-OV-3.
Assay [16] deals with SN12C.
Assay [17] deals with SR.
In assay [18] the test system is T47D.
Assay [19] relates to U-251.
Assay [20] concerns SF-268.

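Tested at 5 concentrations; 48 h exposure; 96-well plates; endpoints linearly interpolated, else capped at highest concentration. Abbreviation: GI50, concentration required for 50% inhibition of growth.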 Active and inactive are the calls of the source. Cut-off read from the data, not from the text of the source: active = GI50 up to about 1.1 µM and inactive = higher.

`Cc1ccc(S(N)(C(=O)Nc2cccc3ccccc23)[N+](=O)[O-])cc1` (configuration not stated): the GI50 was > 100 µM (inactive) in assay [1]; > 100 µM (inactive) in assay [2]; 42.3 µM (inactive) in assay [3]; 68.2 µM (inactive) in assay [4]; over 100 µM in [5]; > 100 µM (inactive) in assay [6]. Moreover, the GI50 in [7] was > 100 µM (inactive); in [8] it was > 100 µM (inactive); in [9], > 100 µM (inactive); in [10], > 100 µM (inactive); in assay [11], 61.8 µM (inactive); in assay [12], > 100 µM (inactive). Also, the GI50 is 50.4 µM (inactive) in [13]; > 100 µM (inactive) in assay [14]; > 100 µM (inactive) in assay [15]; > 100 µM (inactive) in assay [16]; 58.9 µM (inactive) in assay [17]; 46.2 µM (inactive) in [18]. Besides, the GI50 in assay [19] was > 100 µM (inactive).
Turning to `COC(OC)C1OC(CO)C(n2cc(F)c(=O)[nH]c2=O)C1O` (configuration not stated), the GI50 is > 100 µM (inactive) in assay [1]; > 100 µM (inactive) in assay [2]; > 100 µM (inactive) in assay [3]; 21.4 µM (inactive) in assay [4]; over 100 µM in assay [5]; > 100 µM (inactive) in assay [6]. The GI50 in [7], in [8], in assay [9], in assay [10], in assay [11] and in assay [12] was > 100 µM (inactive) each time. The GI50 is > 100 µM (inactive) in assay [13]; > 100 µM (inactive) in assay [20]; > 100 µM (inactive) in [14]; > 100 µM (inactive) in assay [15]; > 100 µM (inactive) in [16]; 25.4 µM (inactive) in [18]. Besides, the GI50 in assay [19] was > 100 µM (inactive).
`COc1ccc2c(c1)CC1Cc3ccccc3CCN1C2` (configuration not stated): the GI50 in assay [2] was 20.3 µM (inactive); in assay [3], 98.6 µM (inactive); in assay [4], 61.2 µM (inactive); in assay [5], 61.2 µM; in assay [6] it was 32.4 µM (inactive); in assay [7], 38 µM (inactive). Also, the GI50 in assay [8] is 34.2 µM (inactive); in assay [9], 70.3 µM (inactive); in [10], 38.9 µM (inactive); in [11], 35.1 µM (inactive); in assay [12], > 100 µM (inactive); in assay [13], 25.9 µM (inactive). Besides, the GI50 is > 100 µM (inactive) in assay [20]; > 100 µM (inactive) in [14]; 20.5 µM (inactive) in [15]; > 100 µM (inactive) in [16]; 65.8 µM (inactive) in assay [17]; 35.2 µM (inactive) in assay [18]. Also, the GI50 in assay [19] is 76 µM (inactive).
As for `c1ccc(/N=C2\SC3=NCCN3\C2=N/c2ccccc2)cc1`, the GI50 in [1] was 19.8 µM (inactive); in assay [2] it was 17.9 µM (inactive); in assay [3], 2.68 µM (inactive); in [4] it was 13.2 µM (inactive); in assay [5] it was 10 µM; in assay [6], 16.4 µM (inactive). Moreover, the GI50 was > 10 µM (inactive) in assay [7]; 15.6 µM (inactive) in assay [8]; 20.1 µM (inactive) in [9]; 20.7 µM (inactive) in assay [10]; 18.1 µM (inactive) in [11]; 13.1 µM (inactive) in [13]. For the same compound, the GI50 is 17 µM (inactive) in [14]; 34 µM (inactive) in assay [15]; 22.8 µM (inactive) in assay [16]; 21.4 µM (inactive) in assay [17]; 9.12 µM (inactive) in assay [18]; 17.7 µM (inactive) in assay [19].
As to `COc1cc2c(cc1OC)-c1cc3ccccc3c(=O)n1CC2`, the GI50 in [2] is 27.2 µM (inactive); in [3], 25 µM (inactive); in [4] it was 25.6 µM (inactive); in [6] it was 24.8 µM (inactive); in [7], 19.5 µM (inactive); in assay [8] it was 22.8 µM (inactive). The GI50 in [9] was 37.5 µM (inactive); in [10], 28.2 µM (inactive); in assay [11] it was 22 µM (inactive); in assay [12], 41.6 µM (inactive); in assay [13], 2.68 µM (inactive); in assay [20], 24.9 µM (inactive). The GI50 is 27.7 µM (inactive) in [14]; 13.3 µM (inactive) in [15]; 26.1 µM (inactive) in assay [16]; 14.3 µM (inactive) in assay [17]; 21.8 µM (inactive) in assay [18]; 16.4 µM (inactive) in assay [19].
For the compound `CC(=O)OCC1OC(n2c(-c3ccc(C)cc3)cc(-c3ccco3)c(C#N)c2=S)C(OC(C)=O)C(OC(C)=O)C1OC(C)=O` (configuration not stated), the GI50 in assay [1] was 61.7 µM (inactive); in assay [2] it was > 100 µM (inactive); in assay [3], > 100 µM (inactive); in assay [4] it was > 100 µM (inactive); in assay [5], over 100 µM; in [6] it was > 100 µM (inactive). The GI50 in [7] was 98.4 µM (inactive); in [8], > 100 µM (inactive); in assay [9], 48 µM (inactive); in assay [10], 24.7 µM (inactive); in assay [11], > 100 µM (inactive); in assay [12], > 100 µM (inactive). For the same compound, the GI50 in [13] is > 100 µM (inactive); in [20], 56.8 µM (inactive); in assay [14], > 100 µM (inactive); in [15], 29.9 µM (inactive); in assay [16], > 100 µM (inactive); in [17] it was > 100 µM (inactive). Further, the GI50 in [18] was 20.6 µM (inactive); in [19] it was 33.8 µM (inactive).
On to `Nc1nc2ccc(Sc3ccc4nc(N)[nH]c(=O)c4c3)cc2c(=O)[nH]1`, for which the GI50 in assay [2] is > 100 µM (inactive); in assay [3], > 100 µM (inactive); in assay [4] it was > 100 µM (inactive); in assay [5] it was over 100 µM; in [6], > 100 µM (inactive); in assay [7], 61.1 µM (inactive). The GI50 in [8], in assay [9], in assay [10], in assay [11], in assay [12] and in assay [13] was > 100 µM (inactive) in each case. In addition, the GI50 in assay [20], in assay [14], in [15], in assay [16], in assay [17] and in assay [18] was > 100 µM (inactive) throughout. Further, in assay [19], the GI50 is 42.5 µM (inactive).
Consider `COP(=O)(OC)/C(=C/c1cn(C(C)=O)c2ccccc12)NC(C)=O`, for which the GI50 is 16.6 µM (inactive) in assay [1]; 40.9 µM (inactive) in assay [2]; 16.7 µM (inactive) in [3]; > 100 µM (inactive) in [4]; 18.1 µM in assay [5]; 41.6 µM (inactive) in assay [6]. Further, the GI50 was 54.8 µM (inactive) in [7]; 4.62 µM (inactive) in [8]; 37.7 µM (inactive) in [9]; 52.5 µM (inactive) in [10]; 21.3 µM (inactive) in assay [11]; 33.2 µM (inactive) in assay [12]. Moreover, the GI50 is 22.4 µM (inactive) in assay [13]; 36.4 µM (inactive) in assay [14]; > 100 µM (inactive) in assay [15]; 31.6 µM (inactive) in assay [16]; 15.8 µM (inactive) in assay [17]; 38.5 µM (inactive) in assay [18]. In addition, in assay [19], the GI50 is 33.2 µM (inactive).
`COc1nc2ccc(CNc3ccc(C(=O)NC(CCC(=O)O)C(=O)O)cc3)cc2nc1OC` (configuration not stated): the GI50 in assay [1] was > 100 µM (inactive); in assay [3] it was 23.2 µM (inactive); in assay [4], > 100 µM (inactive); in assay [5], 53.1 µM; in assay [6], > 100 µM (inactive); in assay [7] it was > 100 µM (inactive). In addition, the GI50 in [8] is > 100 µM (inactive); in [9], > 100 µM (inactive); in [10], > 100 µM (inactive); in [11], > 100 µM (inactive); in [12] it was > 100 µM (inactive); in assay [13], 44.6 µM (inactive). Besides, the GI50 in assay [20], in assay [14], in assay [15], in [16], in assay [17] and in assay [18] was > 100 µM (inactive) in each case. In assay [19], the GI50 was > 100 µM (inactive).
Consider `COc1cc(Br)c(CC2C3=C(CCN2C(=O)C2CCC2)CC(=O)CC3)cc1O` (configuration not stated), for which the GI50 is 25.5 µM (inactive) in assay [3]; 49.4 µM (inactive) in assay [4]; 18.7 µM in assay [5]; 24.9 µM (inactive) in assay [6]; 36.3 µM (inactive) in assay [7]; 17.1 µM (inactive) in assay [8]. Moreover, the GI50 in assay [9] is 18.2 µM (inactive); in [10] it was 45.3 µM (inactive); in assay [11] it was 23.6 µM (inactive); in assay [13] it was 30.7 µM (inactive); in assay [20], 31.3 µM (inactive); in assay [14], 46.7 µM (inactive). The GI50 is 56.9 µM (inactive) in assay [15]; 51.3 µM (inactive) in assay [16]; 38.4 µM (inactive) in assay [17]; 26.2 µM (inactive) in assay [18]; 42.7 µM (inactive) in [19].
Consider `Cc1cnc(/C=N\NC(N)=S)c2cccc(N)c12`, for which the GI50 in assay [1] is 10.8 µM (inactive); in assay [2] it was 0.516 µM (active); in [3] it was 0.278 µM (active); in assay [4] it was 0.411 µM (active); in [5], 0.78 µM; in [6], 0.711 µM (active). Further, the GI50 in assay [7] was 1.75 µM (inactive); in [8], 1.48 µM (inactive); in assay [9], 0.334 µM (active); in [10], 0.538 µM (active); in assay [11] it was 0.426 µM (active); in assay [12] it was 1.95 µM (inactive). In addition, the GI50 is 2.27 µM (inactive) in [13]; 0.565 µM (active) in assay [20]; 3.27 µM (inactive) in [14]; 2.59 µM (inactive) in assay [15]; 0.434 µM (active) in assay [16]; 0.314 µM (active) in assay [17]. In addition, the values for the GI50 in [18] and in assay [19] were 0.497 µM (active) and 0.604 µM (active), respectively.
